From patent US20220267753A1, “RATIONAL THERAPEUTIC TARGETING OF ONCOGENIC IMMUNE SIGNALING STATES IN MYELOID MALIGNANCIES VIA THE UBIQUITIN CONJUGATING ENZYME UBE2N” (CHILDREN'S HOSPITAL MEDICAL CENTER, priority 2019, published 2022)

Experiments:
[1] = test system: cord blood CD34+ cells; assay: Colony formation (clonogenic) assay in healthy cells; format: cell-based, human
Description: In order to determine viability after UBE2N knockdown or inhibition, 1×10^6 AML cells were washed with PBS and mixed with pre-diluted APC-conjugated Annexin V (BD Pharmigen, Franklin Lakes, N.J.) and Propidium iodide (PI) (Invitrogen ThermoFisher 00-6990-42, Waltham, Mass.). Cells were stained at room temperature for 15 minutes and suspended in 0.5 ml of Annexin V incubation buffer (eBiosciences 88-8007-74, San Diego, Calif.) for analysis using a BD FACS Canto System (BD Biosciences, San Jose, Calif.). For UBE2N knockdown experiments, PI−/GFP+ cells were sorted using a MoFlo XDP sorter (Beckman Coulter, Brea, Calif.) and plated in methylcellulose (StemCell Technologies H4236, Vancouver, CA) at 1000 cells/ml in 35 mm culture dishes. For UBE2N inhibition experiments, cell lines were plated in methycellulose (StemCell Technologies H4236, Vancouver, CA) at the indicated concentrations of inhibitor. Cells were incubated at 37° C. and 5% CO2. Colonies were scored after 7 days in culture. For UBE2N or UBE2N C87S overexpression experiments, MOLM-13 cells were transduced with lentivectors overexpressing UBE2N wild type or mutant in the presence of polybrene (8 μg/ml). […] Colonies were scored at 7 days. […] Colonies were manually scored at 14-16 days after plating or counted with STEMVision (StemCell Technologies, Vancouver, CA).

[2] = test system: THP-1 cells; assay: Colony formation assay of THP-1 cells with shControl or shUBE2N; format: cell-based, human
Excerpt: For knockdown studies, UBE2N shRNA template oligonucleotides from the TRC shRNA library cloned into the pLKO.1 TRC cloning vector (Addgene: #10878) and pLKO.1 TRC cloning vector (Table 3). The puromycin gene in pLKO.1 was replaced with GFP. pLKO.1 TRC control was used as non-silencing control (Addgene: #10879). For production of lentiviral particles, lentiviral shRNA expression constructs were transfected together with packaging vectors into 293T producer cells using TransIT transfection reagent (Mirus, MIR 2306), supernatants were harvested after 48 and 72 hours, and concentrated by ultracentrifugation. […] UBE2N knockdown efficiency was determined by quantitative real time PCR (qRT-PCR) and western blot and quantified as described elsewhere. […] Levels of overexpression of UBE2N were determined by western blot.
In order to determine viability after UBE2N knockdown or inhibition, 1×10^6 AML cells were washed with PBS and mixed with pre-diluted APC-conjugated Annexin V (BD Pharmigen, Franklin Lakes, N.J.) and Propidium iodide (PI) (Invitrogen ThermoFisher 00-6990-42, Waltham, Mass.). […] Colonies were scored after 7 days in culture. […] Colonies were scored at 7 days. […] Colonies were manually scored at 14-16 days after plating or counted with STEMVision (StemCell Technologies, Vancouver, CA).

[3] = test system: patient-derived AML cells; assay: Patient-derived xenografts (PDX) in NSGS mice; format: in vivo
[4] = test system: MOLM-13 cells; assay: MOLM-13 xenograft in NSG mice; format: in vivo; details: 2 mg/kg i.p.
Description: Lentivirally-infected MOLM-13 cells or HL-60 cells (1.9×10^4 cells per recipient) expressing a non-silencing control shRNA or UBE2N specific shRNAs were tail vein transplanted into sublethally irradiated NOD-scid IL2Rγ^−/− (NSG) mice (250 rads whole body irradiation). Moribund mice were sacrificed and assessed for leukemic burden measurements. BM and spleen cells were analyzed for GFP expression by flow cytometry using a BD FACS Canto System (BD Biosciences, San Jose, Calif.). Bone marrow aspirates were taken 2 weeks after transplantation for smears or to assess engraftment by flow cytometry. For survival analysis after UBE2N inhibitors treatment, NSG mice (n=10/group) were injected with 1×10^4 MOLM-13 cells and treated with 4 doses of 2 mg/kg/d of UC-764865, or vehicle control (0.2% tween 20 in water) for 2 weeks (8 doses total). Time of death was recorded, and Kaplan Meier survival analysis was performed using GraphPad Prism version 7.00 for Mac (GraphPad Software, La Jolla Calif. USA). Engraftment was assessed in bone marrow (BM) at one week after transplantation by flow cytometric determination of human CD33 (BDPharmingen 555450, Franklin Lakes, N.J.), human CD45 and/or human CD15. Briefly, mice were euthanized with carbon dioxide following the AVMA Guidelines for the Euthanasia of Animals and BM cells were immediately extracted by breaking the femurs with a mortar and pestle. Red blood cells were lysed with RBC lysis buffer (555899 BD Biosciences) and washed twice with Phosphate-Buffered Saline (PBS) (Dulbecco's 45000-446 (PK)), 2% Fetal Bovine Serum (FBS). 1×10^6 cells were stained with human CD33 (BDPharmighen 555450), murine CD45 (BDPharmighen 557659) by incubating in PBS, 0.2% FBS for 30 minutes on ice in the dark. After staining the cells were washed once with PBS and resuspended in incubation buffer with propidium iodine. Cells were analyzed using a BD FACS Canto System (BD Biosciences, San Jose, Calif.). Alternatively, 1×10^4 MOLM-13 cells were xenotransplanted in NSG mice without conditioning (n=10/group). Treatment with UBE2N inhibitors was started one day after transplant for […] (5 days dosing of 2 mg/kg/d, resting 2 days, 2 days dosing of 2 mg/kg/d) by intraperitoneal injections (IP). All the mice were sacrificed at day 10 post transplantation and engraftment of MOLM-13 cells was analyzed in spleen and BM by staining for human CD15 (BDPharmighen 551376) as described above. For patient-derived xenografts (PDX), 1×106 to 6×10^6 cells were transplanted via tail vain in NSGS mice conditioned with busulfan (final dose of 30 mg/kg) 24 hours prior to transplantation. Treatment with UC-764865 was started 3 days after transplantation with 5 weekly doses of 25 mg/kg UC-764865 or vehicle control (methyl-β-cyclodextrin, 50 mg/ml) via LP during a period of 2-6 weeks. BM aspirates were performed once a week and determination of engraftment was performed as described above.

SMILES	clonogenic potential of cord blood CD34+ cells [1]	leukemic colony formation of THP-1 cells following knockdown of UBE2N [2]	leukemic progenitor function (colony formation) of THP-1-shControl cells [2]	leukemic burden of mice xenografted with UBE2N-resistant sample AML-JM60 ([3]; 25 mg/kg IP)	total and ubiquitinated UBE2N in BM cells of mice xenografted with AML-JM40 ([3]; 25 mg/kg, vs vehicle, immunoblot)	reduction in leukemic burden of UBE2N-sensitive AML cells in the BM ([3]; JM7, JM40, JM26, 25 mg/kg IP, P=0.008)	onset of leukemia ([4]; 4 doses/week for 2 weeks, vehicle 8 days) [days]	overall median survival ([4]; 4 doses/week for 2 weeks, vehicle 17 days, P<0.0001) [days]	reduction of leukemic burden (percent of human CD15+ cells) in BM ([4]; 7 doses, day 10 post transplantation, P=0.03) [%]	reduction of leukemic burden (percent of human CD15+ cells) in spleen ([4]; 7 doses, day 10 post transplantation, P=0.3) [%]	spleen weight at time of death ([4]; vehicle 63±29 mg, P=0.0001) [mg]	reduction of splenomegaly at time of death ([4]; vs vehicle) [%]
CCc1ccc(C(=O)C=CSc2nc3ccc(C)cc3[nH]2)cc1 [UC-764864, 1-(4-ethylphenyl)-3-[(6-methyl-1H-benzimidazol-2-yl)sulfanyl]prop-2-en-1-one]	did not affect	did not significantly further suppress	significantly repressed									
COc1ccc(C(=O)C=CSc2nc3ccc(C)cc3[nH]2)cc1 [UC-764865, 1-(4-methoxyphenyl)-3-[(6-methyl-1H-benzimidazol-2-yl)sulfanyl]prop-2-en-1-one]				did not decrease	reduced	30-60%	18	21	40	70	18 ± 6	80
